Measurements: patent US20240309003A1, “HETEROCYCLIC COMPOUNDS AS TRIGGERING RECEPTOR EXPRESSED ON MYELOID CELLS 2 AGONISTS AND METHODS OF USE” (Vigil Neuroscience, Inc., priority 2021, published 2024)

These molecules were tested against T1, human TREM2 (Homo sapiens, UniProt Q9NZC2) (assay: TREM2 agonist potency by cellular phosphorylation of Syk (AlphaLisa) in HEK293T-hTREM2 cells). Conditions: HEK293 cells expressing human TREM2 and DAP12, Table D.
T1 construct: expressed in transfected cells; host or cells: HEK293T
T1 sequence (Q9NZC2 19-230): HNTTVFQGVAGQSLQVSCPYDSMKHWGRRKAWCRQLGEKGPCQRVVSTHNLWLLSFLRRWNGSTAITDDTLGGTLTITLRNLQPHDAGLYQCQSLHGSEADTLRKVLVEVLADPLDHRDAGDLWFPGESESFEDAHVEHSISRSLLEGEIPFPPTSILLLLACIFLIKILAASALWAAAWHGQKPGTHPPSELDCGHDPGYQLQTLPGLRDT
T1 sequence (O43914 22-113 partner): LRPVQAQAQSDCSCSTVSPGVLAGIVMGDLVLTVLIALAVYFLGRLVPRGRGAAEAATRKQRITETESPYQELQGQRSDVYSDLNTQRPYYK
Type: cell-based
Outline: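 Agonist EC50 from a variable-slope four-parameter fit of % activation, based on AlphaLisa phospho-Syk levels in lysates. Cells: HEK293T-hTREM2 (with DAP12), treated 45 min at room temperature with compound in assay buffer.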

`Cc1nc2nc(C3CCOC(c4cn[nH]c4)C3)nc(-c3ccc(F)cc3F)c2nc1C` (stereo not shown) [Example 167, 2-(2-(1H-pyrazol-4-yl)tetrahydro-2H-pyran-4-yl)-4-(2,4-difluorophenyl)-6,7-dimethylpteridine] and `Cc1cc([C@H]2C[C@@H](c3nc(-c4ccc(C(F)(F)F)nc4)c4nc(C)c(C)nc4n3)CCO2)ccn1` (racemic) [Example 4, 6,7-dimethyl-2-((2R,4S)-2-(2-methylpyridin-4-yl)tetrahydro-2H-pyran-4-yl)-4-(6-(trifluoromethyl)pyridin-3-yl)pteridine] fall in the same range of EC50: 50 to 500 nM for the first, 50 to 500 nM for the second.

First: Cc1nc2nc(N3CCO[C@@H](c4cc[nH]c(=O)c4)C3)nc(C34CC(C(F)(F)F)(C3)C4)c2nc1C [Example 198, (S)-4-(4-(6,7-dimethyl-4-(3-(trifluoromethyl)bicyclo[1.1.1]pentan-1-yl)pteridin-2-yl)morpholin-2-yl)pyridin-2(1H)-one]
Second: COc1cccc([C@@H]2C[C@H](c3nc(C45CC(C(F)(F)F)(C4)C5)c4nc(C)c(C)nc4n3)CCO2)n1 [Example 145, 2-[ (2S,4R)-2-(6-methoxy-2-pyridyl)tetrahydropyran-4-yl] - 6,7-dimethyl-4-[3-(trifluoromethyl)-1-bicyclo[1.1.1]pentanyl]pteridine]
The EC50 of the first is lower: < 50 nM for the first, 500 to 3000 nM for the second. The first is the more potent here.

First: Cc1cnc2c(C34CC(C(F)(F)F)(C3)C4)nc([C@H]3C[C@@H](C)O[C@@H](c4cnn(C5CC5)c4)C3)nc2n1 [Example 140, 2-((2R,4S,6R)-2-(1-cyclopropyl-1H-pyrazol-4-yl)-6-methyltetrahydro-2H-pyran-4-yl)-7-methyl-4-(3-(trifluoromethyl)bicyclo[1.1.1]pentan-1-yl)pteridine]
Second: Cc1cnc2c(C34CC(C(F)(F)F)(C3)C4)nc(N3C[C@@H](C)O[C@@H](c4cnn(C5CC5)c4)C3)nc2n1 (racemic) [Example 49, 2-(1-cyclopropyl-1H-pyrazol-4-yl)-6-methyl-4-(7-methyl-4-(3-(trifluoromethyl)bicyclo[1.1.1]pentan-1-yl)pteridin-2-yl)morpholine]
The EC50 of the first is higher: 500 to 3000 nM for the first, < 50 nM for the second. The second is the more potent here.

Compared with `Cc1nc2nc([C@H]3CCO[C@@H](c4cnn(C5CC(F)C5)c4)C3)nc(C34CC(C(F)(F)F)(C3)C4)c2nc1C` (stereo in doubt) [Example 135, 2-((2R,4S)-2-(1-(3-fluorocyclobutyl)-1H-pyrazol-4-yl)tetrahydro-2H-pyran-4-yl)-6,7-dimethyl-4-(3-(trifluoromethyl)bicyclo[1.1.1]pentan-1-yl)pteridine], `Cc1cc2c(-c3ccc(Cl)cc3F)nc([C@@H]3CCO[C@@H](c4cnn(C5CC5)c4)C3)nc2nc1C` [Example 216, 4-(4-chloro-2-fluorophenyl)-2-((2R,4R)-2-(1-cyclopropyl-1H-pyrazol-4-yl)tetrahydro-2H-pyran-4-yl)-6,7-dimethylpyrido[2,3-d]pyrimidine] is lower in EC50: 50 to 500 nM for the first, < 50 nM for the second. The second is the more potent here.

`Cc1cc2c(-c3ccc(F)cc3F)cc([C@H]3CCO[C@@H](c4cnn(C5CC5)c4)C3)nc2nc1C` [Example 232] and `Cc1cc([C@H]2C[C@@H](c3cc(-c4ccc(Cl)cc4F)c4cc(C)c(C)nc4n3)CCO2)ccn1` [Example 184, 5-(4-chloro-2-fluorophenyl)-2,3-dimethyl-7-((2R,4S)-2-(2-methylpyridin-4-yl)tetrahydro-2H-pyran-4-yl)-1,8-naphthyridine] cannot be ordered by EC50: < 50 nM for the first, < 50 nM for the second.

Compared with `[2H]C([2H])([2H])c1ccc(-c2nc([C@H]3CCO[C@@H](c4cnn(C([2H])([2H])[2H])c4)C3)nc3nc(C([2H])([2H])[2H])c(C([2H])([2H])[2H])nc23)cc1` [Example 175, 6,7-bis(methyl-d3)-2-((2R,4S)-2-(1-(methyl-d3)-1H-pyrazol-4-yl)tetrahydro-2H-pyran-4-yl)-4-(4-(methyl-d3)phenyl)pteridine], `[2H]C([2H])([2H])c1nc2nc([C@@H]3CCO[C@H](c4cnn(C([2H])([2H])[2H])c4)C3)nc(-c3ccc(C)cc3)c2nc1C([2H])([2H])[2H]` [Example 172, 6,7-bis(methyl-d3)-2-((2S,4R)-2-(1-(methyl-d3)-1H-pyrazol-4-yl)tetrahydro-2H-pyran-4-yl)-4-(p-tolyl)pteridine] is higher in EC50: 50 to 500 nM for the first, 3000 to 100000 nM for the second.

Compared with `Cc1nc2nc(N3CCN(C)[C@H](c4cnn(C5CC5)c4)C3)nc(-c3ccc(Cl)cc3F)c2nc1C` [Example 207, (R)-4-(4-chloro-2-fluorophenyl)-2-(3-(1-cyclopropyl-1H-pyrazol-4-yl)-4-methylpiperazin-1-yl)-6,7-dimethylpteridine], `Cc1nc2nc(N3C[C@@H](C)O[C@@H](c4cnn(C5CC5)c4)C3)nc(-c3ccnn3C)c2nc1C` [Example 241, (2S,6R)-2-(1-cyclopropyl-1H-pyrazol-4-yl)-4-(6,7-dimethyl-4-(1-methyl-1H-pyrazol-5-yl)pteridin-2-yl)-6-methylmorpholine] is higher in EC50: < 50 nM for the first, 50 to 500 nM for the second. The first is the more potent here.

Same assay, conditions: HEK293 cells expressing human TREM2 and DAP12, Table D-2

First: Cc1nc2nc([C@H]3CC(CO)O[C@@H](c4cnn(C5CC5)c4)C3)nc(-c3ccc(F)cc3F)c2nc1C (stereo in doubt) [Example I-1624, [(2S,4R,6R)-6-(1-cyclopropylpyrazol-4-yl)-4-[4-(2,4-difluorophenyl)-6,7-dimethyl-pteridin-2-yl]tetrahydropyran-2-yl]methanol]
Second: Cc1nc2nc(N3C[C@@H](CO)O[C@@H](c4cnn(C5CC5)c4)C3)nc(-c3ccc(F)cc3F)c2nc1C [Example I-1333, [(2S,6S)-6-(1-cyclopropylpyrazol-4-yl)-4-[4-(2,4-difluorophenyl)-6,7-dimethyl-pteridin-2-yl]morpholin-2-yl]methanol]
The EC50 of the first is higher: 500 to 3000 nM for the first, 50 to 500 nM for the second. The second is the more potent here.

`Cc1nc2cc([C@H]3CCO[C@@H](c4cnn(C5CC5)c4)C3)nc(-c3ccc(F)cc3F)c2nc1CO` [Example I-1119, (7-((2R,4S)-2-(1-cyclopropyl-1H-pyrazol-4-yl)tetrahydro-2H-pyran-4-yl)-5-(2,4-difluorophenyl)-2-methylpyrido[3,4-b]pyrazin-3-yl)methanol] and `Cc1nc2nc(-c3cc(-c4cnn(C5CC5)c4)c(=O)n(C)c3)nc(-c3ccc(F)cc3F)c2nc1C` [Example I-1461, 3-(1-cyclopropyl-1H-pyrazol-4-yl)-5-(4-(2,4-difluorophenyl)-6,7-dimethylpteridin-2-yl)-1-methylpyridin-2(1H)-one] fall in the same range of EC50: 50 to 500 nM for the first, 50 to 500 nM for the second.

`Cc1nc2nc(C3CCO[C@@H](c4cnn(C5CC5)c4)C3)nc([C@H]3C[C@H](C(F)(F)F)C3)c2nc1C` (stereo partly drawn) [Example I-1432, 2-[(2R)-2-(1-cyclopropylpyrazol-4-yl)tetrahydropyran-4-yl]-6,7-dimethyl-4-[3-(trifluoromethyl)cyclobutyl]pteridine] and `Cc1nc2nc(C3CCO[C@@H](c4cnn(C5CC5)c4)C3)nc([C@H]3C[C@@H](C(F)(F)F)C3)c2nc1C` (stereo partly drawn) [Example I-1414, 2-[(2R)-2-(1-cyclopropylpyrazol-4-yl)tetrahydropyran-4-yl]-6,7-dimethyl-4-[3-(trifluoromethyl)cyclobutyl]pteridine] cannot be ordered by EC50: < 50 nM for the first, < 50 nM for the second.

`Cc1nc2nc(N3C[C@@H](C)O[C@@H](c4cnn(C)c4)C3)nc(-c3ccc(F)cc3F)c2nc1C` [Example I-1633] and `Cc1nc2nc(N3C[C@@H](c4cnn(C5CC5)c4)O[C@@H](C(F)F)C3)nc(-c3ccc(C(F)(F)F)cc3F)c2nc1C` [Example I-1638, (2R,6R)-2-(1-cyclopropylpyrazol-4-yl)-6-(difluoromethyl)-4-[4-[2-fluoro-4-(trifluoromethyl)phenyl]-6,7-dimethyl-pteridin-2-yl]morpholine] cannot be ordered by EC50: < 50 nM for the first, < 50 nM for the second.
